Results on 13 compounds are retold here after patent US12319655B2, “RAF kinase inhibitors and methods of use thereof” (Deciphera Pharmaceuticals, LLC, priority 2021, dated 2025).

pIC50: −log10 of the molar value.

For the assay, the system named is H2405 cells. The assay can be described thus: H2405 Cell Proliferation Assay (2). The conditions noted are these: Homo sapiens, NCI-H2405. The assay is classed as cell-based. The method, then:
H2405 Cell Proliferation Assay (2)
H2405 cells (catalog #CRL-5994) are obtained from the American Type Culture Collect (ATTC, Manassas, VA). Briefly, cells were grown in RPMI 1640 supplemented with 5% characterized fetal bovine serum (Invitrogen, Carlsbad, CA) and 1% Penicillin/Streptomycin/L-Glutamine at 37° C., 5% CO2, and 95% humidity. Cells are expanded until reaching 70-95% confluency at which point they are sub-cultured or harvested for assay use. A serial dilution of test compound is dispensed into a 384-well black clear bottom plate in triplicate. Seven hundred fifty cells are added per well in 50 μL complete growth medium in the 384-well plate. Plates are incubated for 67-72 h at 37° C., 5% CO2, and 95% humidity. At the end of the incubation, 10 μL of a 440 μM solution of resazurin (Sigma, St. Louis, MO) in PBS is added to each well of the plate and plates are incubated for an additional 5-6 h at 37° C., 5% CO2, and 95% humidity. Plates are read on a Synergy2 or equivalent reader (Biotek, Winooski VT) using an excitation of 540 nm and an emission of 600 nm. Data is analyzed using Prism software (GraphPad, San Diego, CA) to calculate IC50 values
With `CNC(=N)c1cc(-c2cc(-c3cc(NC(=O)c4ccnc(C(C)(C)F)c4)ccc3C)ccn2)ccn1` [Example 452], the negative-log IC50 (pIC50) – broadly, the IC50 on a negative log10 scale, so that one unit is a factor of ten – was 6.30 to 7.00.
For `CNC(=O)c1cc(-c2cc(-c3cc(NC(=O)c4ccnc(C(C)(C)F)c4)ccc3C(F)(F)F)ccn2)ccn1` [Example 471] the value was 5.00 to 6.00; for `CNC(=O)c1cc(-c2cncc(-c3cc(NC(=O)c4ccnc(C(C)C)c4)ccc3C)c2)ncn1` [Example 446], 6.30 to 7.00.
Turning to `CNC(=O)c1cc(-c2cc(-c3cc(NC(=O)c4cnnc(C(F)(F)F)c4)ccc3C)ccn2)ccn1` [Example 477], the negative logarithm of the IC50 (pIC50) is 5.00 to 6.00.
For the compound `CNC(=O)c1cc(-c2cncc(-c3cc(NC(=O)c4ccnc(C(C)(C)C#N)c4)ccc3C)c2)ccn1` [Example 442], the pIC50 is not below 7.00.
For `CNC(=O)c1cc(-c2cc(-c3cc(NC(=O)c4ccnc(C(C)C)c4)cnc3C)ccn2)ccn1` [Example 465] the value was 6.30 to 7.00; for `Cc1ccc(NC(=O)c2ccnc(C3CC3)c2)cc1-c1ccnc(-c2ccnc(NC(=O)C3CC3)c2)c1` [Example 458], not below 7.00; for `CNC(=O)c1cc(-c2cc(-c3cc(NC(=O)c4ccnc(C(C)(C)F)c4)ccc3C)cc(OCCO)n2)ccn1` [Example 449], not below 7.00.
For `CNC(=O)c1cc(-c2cncc(-c3cc(NC(=O)c4ccnc(C(C)C)c4)ccc3C)c2)ccn1` [Example 445] the value was not below 7.00; for `Cc1cc(-c2cc(NC(=O)c3ccnc(C(C)(C)F)c3)ccc2C)cc(-c2ccnc(C#N)c2)n1` [Example 483], 5.00 to 6.00.
As for `CNC(=O)c1cc(-c2cc(-c3cc(NC(=O)c4ccnc(C(C)(C)F)c4)ccc3F)ccn2)ccn1` [Example 479], the negative-log IC50 (pIC50) is 6.30 to 7.00.
For `CNC(=O)c1cc(-c2cc(-c3cc(NC(=O)c4ccnc(C(C)(F)F)c4)ccc3C)ccn2)ccn1` [Example 441] the value was not below 7.00; for `CNC(=O)c1cc(-c2cc(-c3cc(NC(=O)c4ccnc(C(C)(C)F)c4)ccc3C)cnn2)ccn1` [Example 473], 6.30 to 7.00.
